Key:
[1] = Flux of alprazolam through hairless mouse skin in Franz diffusion cells
Method: Female hairless mice were sacrificed by cervical dislocation and their full-thickness skins removed. […] The skin was placed in Franz diffusion cells. The receptor phase consisted of phosphate buffer saline pH 7.4. The skin diffusion cells were stirred with a magnetic bar and kept at 37° C. by circulating water through an external jacket. […] The samples were kept frozen until analyzed by HPLC. The flux was calculated from the linear part of each permeability profile and the permeability coefficient obtained by dividing the flux with the concentration of dissolved drug in the donor phase.

[2] = First-order rate constant of diazepine ring-closure (regeneration of the benzodiazepine); assay type: physicochemical; conditions: pH 7.5, 37° C.
Method: The effect of cyclodextrins and organic solvents on the rate of diazepine ring-closure of several selected benzodiazepines was investigated. Stock solutions containing 1.0×10^−3 M of the benzodiazepine in 0.10 M aqueous hydrochloric acid solution (pH approx. 1.1) were prepared and stored at 37.0° C. The benzodiazepines were in the ring-open form in these stock solutions. Aqueous 0.50 M tris buffer (pH 7.50) solution was prepared. The observed first-order rate constant for the closing (i.e. formation) of the benzodiazepine ring was determined in the following reaction media: a) pure aqueous tris buffer solution; b) aqueous tris buffer solution containing 10% (w/v) cyclodextrin; c) tris buffer solution containing 10% (w/v) cyclodextrin and 10% (v/v) ethanol (EtOH); d) tris buffer solution containing 10% (w/v) cyclodextrin and 50% (v/v) EtOH; e) tris buffer solution containing 10% (w/v) cyclodextrin and 10% (v/v) dimethylsulfoxide (DMSO); and f) tris buffer solution containing 10% (w/v) cyclodextrin and 50% (w/v) DMSO. The stock solution (30 μl) was added to 1.50 ml of the reaction media which had previously been equilibrated to 37.0° C. and the first-order rate constant for the appearance of the closed form determined from the appearance of the closed form as observed on HPLC. Tables 5, 6 and 7 show the effects of cyclodextrins, EtOH and DMSO on the observed first-order rate constant for the regeneration of alprazolam, triazolam and midazolam, respectively. In pure aqueous buffer solutions, addition of EtOH and DMSO decreases somewhat the rate of ring closure, at least in the case of alprazolam and midazolam. Addition of cyclodextrin or the organic solvents have insignificant effect on the pH under these conditions. The dielectric constant of the reaction medium will, however, decrease upon addition of the organic solvents. It is possible that this decrease in the dielectric constant will reduce the ability of the reaction media to stabilize the transition state which could explain the decrease in the observed rate constant. […] The cyclodextrins formed stable complexes with the ring-open form of the drug and, thus, the rate decreased upon addition of cyclodextrin. […] EtOH and DMSO will compete with the diazepine ring-open form for a space in the cyclodextrin cavity resulting in decreased complexation.

[3] = Effect of pH and cyclodextrins on the fraction of the open form (diazepine ring-opening) of benzodiazepines; assay type: physicochemical
Method: The cyclodextrin concentration was 10% (w/v) and the benzodiazepine concentration was 1×10^−4 M. The concentration of the closed form was determined immediately after dissolving the benzodiazepine in the aqueous cyclodextrin solution and again 24 hours later (i.e. after equilibration at 23° C.). Preliminary experiments had shown that equilibrium between the closed and the open form was attained within 3 hours at 23° C.

[4] = Transdermal delivery of enalaprilat from 10% (w/v) HPβCD solutions, effect of heating with polymers; assay type: in vitro ADME; conditions: for Flux Ratio (heated/un-heated): donor phase HPβCD, pH 5.0
Text: It is possible to enhance the cyclodextrin (CD) complexation efficacy, or efficiency, of drugs (D), and other “guest” molecules, by either increasing the apparent stability constant (KC) of the drug-cyclodextrin complex (D-CD) or increasing the apparent intrinsic solubility (S0) of the drug. For example, KC can be increased by addition of water-soluble polymers to the aqueous complexation media and S0 can be increased by ionization of the drug molecule, as described previously. […] On the other hand, if the drug-cyclodextrin complexes are prepared under conditions which ensure enhanced complexation and if the complexation efficiency decreases upon administration, then enhanced drug availability will be observed. Thus, the present invention involves: i) enhancement of the complexation efficiency and ii) reduction of the complexation efficiency after administration. For example, it is possible to enhance the complexation efficiency of many ionizable drugs by preparing the complexes at a pH where the drug is ionized but obtain decreased efficiency upon administration due to pH changes and consequent decreased ionization. One example of such a drug is phenytoin (pKa 8.1). […] However, if the pH 8.0 solution was placed in an environment which would decrease the pH from 8 to 5 (e.g. topical application to the skin), then a supersaturated solution would be formed which would result in enhanced drug availability (e.g. it would result in enhanced transdermal drug delivery). Other means to enhance S0 include reversible derivation (e.g. prodrug formation) of the guest molecule and addition of certain low molecular weight acids. The value of KC can, for example, be increased by addition of certain low molecular weight acids, by addition of water-soluble polymers to the aqueous complexation media or by using mixed solvent systems such as aqueous 10% (v/v) acetic acid. […] The effect of the polymers on the transdermal delivery of enalaprilat can, at least partly, be explained by decreased complexation efficiency (i.e. decrease in KC) at the skin surface.

[5] = 10% (w/v) HPβCD, pH 2, approx. 23° C.
[6] = 10% (w/v) HPβCD, pH 3, approx. 23° C.
[7] = 10% (w/v) HPβCD, pH 4, approx. 23° C.
[8] = 10% (w/v) SBEβCD, pH 2, approx. 23° C.
[9] = 10% (w/v) SBEβCD, pH 3, approx. 23° C.
[10] = 10% (w/v) SBEβCD, pH 4, approx. 23° C.
[11] = 10% (w/v) αCD, pH 2, approx. 23° C.
[12] = 10% (w/v) αCD, pH 3, approx. 23° C.
[13] = 10% (w/v) αCD, pH 4, approx. 23° C.
[14] = 10% (w/v) γCD, pH 2, approx. 23° C.
[15] = 10% (w/v) γCD, pH 3, approx. 23° C.
[16] = 10% (w/v) γCD, pH 4, approx. 23° C.
[17] = no cyclodextrin, pH 2, approx. 23° C.
[18] = no cyclodextrin, pH 3, approx. 23° C.
[19] = no cyclodextrin, pH 4, approx. 23° C.

Row | Compound | observed first-order rate constant, ring formation ([2]; 10% HPβCD, 10% DMSO) | observed first-order rate constant, ring formation ([2]; 10% HPβCD, 10% EtOH) | observed first-order rate constant, ring formation ([2]; 10% HPβCD, 50% DMSO) | observed first-order rate constant, ring formation ([2]; 10% HPβCD, 50% EtOH) | observed first-order rate constant, ring formation ([2]; 10% HPβCD, pure water) | Fraction open [3, 5] | Fraction open [3, 6] | Fraction open [3, 7] | Fraction open [3, 8] | Fraction open [3, 9] | Fraction open [3, 10] | Fraction open [3, 11] | Fraction open [3, 12] | Fraction open [3, 13] | Fraction open [3, 14] | Fraction open [3, 15] | Fraction open [3, 16] | Fraction open [3, 17] | Fraction open [3, 18] | Fraction open [3, 19] | other results
1 | Cc1nnc2n1-c1ccc(Cl)cc1C(c1ccccc1)=NC2 [alprazolam, 8-chloro-1-methyl-6-phenyl-4H-s-triazolo[4,3-a][1,4]benzodiazepine] | 444 min⁻¹ | 523 min⁻¹ | 857 min⁻¹ | 707 min⁻¹ | 330 min⁻¹ | 0.89 | 0.60 | 0.23 | 0.96 | 0.84 | 0.33 | 0.94 | 0.79 | 0.25 | 0.81 | 0.41 | 0.42 | 0.82 | 0.56 | 0.33 | alprazolam concentration in the donor phase (saturated) ([1]; aqueous 7% (w/v) SBEβCD, pH 3.3): 1.85 mg/mL; Flux ([1]; donor 7% (w/v) SBEβCD pH 3.3, without increasing the pH): 3.91 × 10^−4 mg/cm^2/h; Flux ([1]; donor 7% (w/v) SBEβCD, increasing the pH from 3.3 to 4.1): 4.56 × 10^−4 mg/cm^2/h; Flux Ratio ([1]; increasing the pH from 3.3 to 4.1): 1.2; Flux Ratio ([1]; without increasing the pH): 1.0; observed first-order rate constant, ring formation ([2]; 10% RMβCD, 10% DMSO): 397 min⁻¹; observed first-order rate constant, ring formation ([2]; 10% RMβCD, 10% EtOH): 490 min⁻¹; observed first-order rate constant, ring formation ([2]; 10% RMβCD, 50% DMSO): 792 min⁻¹; observed first-order rate constant, ring formation ([2]; 10% RMβCD, 50% EtOH): 670 min⁻¹; observed first-order rate constant, ring formation ([2]; 10% RMβCD, pure water): 297 min⁻¹; observed first-order rate constant, ring formation ([2]; 10% SBEβCD, 10% EtOH): 518 min⁻¹; observed first-order rate constant, ring formation ([2]; 10% SBEβCD, 50% DMSO): 936 min⁻¹; observed first-order rate constant, ring formation ([2]; 10% SBEβCD, 50% EtOH): 582 min⁻¹; observed first-order rate constant, ring formation ([2]; 10% SBEβCD, pure water): 311 min⁻¹; observed first-order rate constant, ring formation ([2]; No CD, 10% DMSO): 968 min⁻¹; observed first-order rate constant, ring formation ([2]; No CD, 10% EtOH): 1150 min⁻¹; observed first-order rate constant, ring formation ([2]; No CD, 50% DMSO): 1070 min⁻¹; observed first-order rate constant, ring formation ([2]; No CD, 50% EtOH): 724 min⁻¹; observed first-order rate constant, ring formation ([2]; No CD, pure water): 1420 min⁻¹; share of drug in the open form ([3]; aqueous HPβCD solution, pH 3): about 60%
2 | C[C@H](N[C@@H](CCc1ccccc1)C(=O)O)C(=O)N1CCC[C@H]1C(=O)O [enalaprilat] | – | – | – | – | – | – | – | – | – | – | – | – | – | – | – | – | – | – | – | – | Flux Ratio (heated/un-heated) ([4]; 0.10% HPMC): 2.6; Flux Ratio (heated/un-heated) ([4]; 0.25% PVP): 1.4; effect of polymers on transdermal delivery ([4]; polymers added to unheated vehicles): did not enhance; effect of polymers on transdermal delivery ([4]; vehicles heated after addition of the polymers): significant enhancement
3 | Cc1nnc2n1-c1ccc(Cl)cc1C(c1ccccc1Cl)=NC2 [triazolam, 8-chloro-6-(o-chlorophenyl)-1-methyl-4H-s-triazolo[4,3-a][1,4]benzodiazepine] | 0.0079 min⁻¹ | 0.0092 min⁻¹ | 0.0114 min⁻¹ | 0.0102 min⁻¹ | 0.0066 min⁻¹ | 0.51 | 0.09 | 0.00 | 0.71 | 0.25 | 0.00 | 0.75 | 0.23 | 0.00 | 0.33 | 0.01 | 0.00 | 0.53 | 0.08 | 0.00 | observed first-order rate constant, ring formation ([2]; 10% RMβCD, 10% DMSO): 0.0078 min⁻¹; observed first-order rate constant, ring formation ([2]; 10% RMβCD, 10% EtOH): 0.0092 min⁻¹; observed first-order rate constant, ring formation ([2]; 10% RMβCD, 50% DMSO): 0.0112 min⁻¹; observed first-order rate constant, ring formation ([2]; 10% RMβCD, 50% EtOH): 0.01 min⁻¹; observed first-order rate constant, ring formation ([2]; 10% RMβCD, pure water): 0.0064 min⁻¹; observed first-order rate constant, ring formation ([2]; 10% SBEβCD, 10% DMSO): 0.0073 min⁻¹; observed first-order rate constant, ring formation ([2]; 10% SBEβCD, 10% EtOH): 0.0082 min⁻¹; observed first-order rate constant, ring formation ([2]; 10% SBEβCD, 50% DMSO): 0.0113 min⁻¹; observed first-order rate constant, ring formation ([2]; 10% SBEβCD, 50% EtOH): 0.0097 min⁻¹; observed first-order rate constant, ring formation ([2]; 10% SBEβCD, pure water): 0.0058 min⁻¹; observed first-order rate constant, ring formation ([2]; No CD, 10% DMSO): 0.0128 min⁻¹; observed first-order rate constant, ring formation ([2]; No CD, 10% EtOH): 0.0131 min⁻¹; observed first-order rate constant, ring formation ([2]; No CD, 50% DMSO): 0.0137 min⁻¹; observed first-order rate constant, ring formation ([2]; No CD, 50% EtOH): 0.0184 min⁻¹; observed first-order rate constant, ring formation ([2]; No CD, pure water): 0.0132 min⁻¹
4 | CN1C(=O)CN=C(c2ccccc2)c2cc(Cl)ccc21 [Diazepam] | – | – | – | – | – | 0.65 | 0.29 | 0.15 | 0.63 | 0.56 | 0.22 | 0.67 | 0.51 | 0.13 | 0.41 | 0.17 | 0.13 | 0.30 | 0.23 | 0.15 | –

From patent publication US6699849B1, “Cyclodextrin complexes of benzodiazepines” (Cyclops, ehf., priority 1998, dated 2004)
